The record followed here is ChEMBL document CHEMBL5620419, “Discovery of new Lenalidomide derivatives as potent and selective GSPT1 degraders” (Eur J Med Chem, 2023).

The source made the active and inactive calls. The rule behind the calls is not given here.

A word on the half-life: it is how long it takes for the measured level to halve. Lower therefore signals rapid decline. What is called EC50 is the midpoint of the concentration-response curve. One may read the IC50 as the concentration that inhibits the measured activity by half. As a reminder, the AUC(0-t) is the area under the concentration-time curve up to a stated or last time point. Low values mean low exposure, high ones high exposure.

Series [1] deals with U-937. Nature of the series: Induction of apoptosis in human U-937 cells assessed as late apoptotic cells at 100 nM measured after 24 hr by Annexin V-FITC/7AAD staining based flow cytometry (reference value: 1.49%). In kind it is functional.
A short description of series [2]: Downregulation of GSPT1 level in human U-937 cells assessed as fold change at 0.1 uM measured after 6 hrs. In kind it is functional.
Series [3] concerns U-937. The experiment in a line: Induction of cell cycle arrest in human U-937 cells assessed as accumulation of cells at S phase at 100 nM measured after 24 hrs by propidium iodide staining based flow cytometry analysis (reference value: 6.38%). In kind it is functional. (Flow cytometry measures light scatter and fluorescence of single cells or particles in a stream.)
Series [4] in a line: Half life in ip dosed Sprague-Dawley rat. In kind it is ADME, organism-based. Particulars: in vivo.
The target in series [5] is T1, Protein cereblon/Eukaryotic peptide chain release factor GTP-binding subunit ERF3A (Homo sapiens) (UniProt Q96SW2+P15170). The experiment in a line: (§1) PROTAC activity at CRBN/GSPT1 in human U-937 cells assessed as degradation of GSPT1 measured after 6 hrs by Western blot analysis. In kind it is cell-based. The following applies: dose <= 300.0 nM.
T1 sequence (P15170 whole entry, looked up): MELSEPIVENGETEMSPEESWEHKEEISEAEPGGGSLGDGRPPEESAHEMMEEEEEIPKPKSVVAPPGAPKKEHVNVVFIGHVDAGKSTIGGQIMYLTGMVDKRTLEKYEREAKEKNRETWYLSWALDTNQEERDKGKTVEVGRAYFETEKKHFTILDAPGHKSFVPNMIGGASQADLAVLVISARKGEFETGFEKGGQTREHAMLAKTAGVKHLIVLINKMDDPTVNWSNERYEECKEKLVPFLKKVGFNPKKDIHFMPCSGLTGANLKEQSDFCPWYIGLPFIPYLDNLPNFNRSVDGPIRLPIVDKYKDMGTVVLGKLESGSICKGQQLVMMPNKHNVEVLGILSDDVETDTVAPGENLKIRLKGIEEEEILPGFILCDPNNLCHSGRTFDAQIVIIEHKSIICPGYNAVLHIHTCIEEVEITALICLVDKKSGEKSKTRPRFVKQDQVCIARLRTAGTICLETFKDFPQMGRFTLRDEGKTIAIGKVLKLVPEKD
T1 sequence (Q96SW2 whole entry, looked up): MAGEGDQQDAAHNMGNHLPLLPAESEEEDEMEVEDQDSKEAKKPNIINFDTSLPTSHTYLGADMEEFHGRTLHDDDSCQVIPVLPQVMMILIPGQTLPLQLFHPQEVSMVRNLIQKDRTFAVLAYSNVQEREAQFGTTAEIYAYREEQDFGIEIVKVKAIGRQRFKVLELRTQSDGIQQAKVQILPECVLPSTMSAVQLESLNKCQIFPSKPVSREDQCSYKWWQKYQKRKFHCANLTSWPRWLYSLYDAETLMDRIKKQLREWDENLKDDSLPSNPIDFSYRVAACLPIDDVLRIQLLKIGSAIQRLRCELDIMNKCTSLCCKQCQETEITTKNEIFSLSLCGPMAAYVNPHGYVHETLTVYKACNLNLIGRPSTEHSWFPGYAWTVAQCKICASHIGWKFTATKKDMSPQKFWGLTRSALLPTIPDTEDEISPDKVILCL
For series [6], the target named is Protein cereblon/Eukaryotic peptide chain release factor GTP-binding subunit ERF3A (Homo sapiens, UniProt P15170+Q96SW2). The description is as §1. It counts as cell-based.
Sequence of Protein cereblon/Eukaryotic peptide chain release factor GTP-binding subunit ERF3A (Q96SW2 whole entry): as the sequence (Q96SW2 whole entry, looked up) above
Sequence of Protein cereblon/Eukaryotic peptide chain release factor GTP-binding subunit ERF3A (P15170 whole entry): as the sequence (P15170 whole entry, looked up) above
Series [7] can be described thus: Downregulation of SCAM2 level in human U-937 cells assessed as fold change at 0.1 uM measured after 6 hrs. In kind it is functional.
The test system of series [8] is MOLT-4. The experiment in a line: Antiproliferative activity against human MOLT-4 cells measured after 72 hrs by CCK-8 method. In kind it is functional, cell-based. Particulars: MOLT-4, 72 h.
Series [9] in a line: AUC (0 to t) in oral dosed Sprague-Dawley rat. It counts as ADME, organism-based. Particulars: in vivo.
The target in series [10] is T1, Protein cereblon/Eukaryotic peptide chain release factor GTP-binding subunit ERF3A (Homo sapiens). The experiment in a line: PROTAC activity at CRBN/GSPT1 in human U-937 cells assessed as induction of GSPT1 degradation preincubated with MLN4924 for 2 hrs followed by compound addition and measured after 6 hrs by Western blot analysis. It counts as cell-based.
For series [11], the system named is MV4-11. Nature of the series: Antiproliferative activity against human MV4-11 cells measured after 72 hrs by CCK-8 method. It counts as functional, cell-based. The following applies: MV4-11, 72 h. (Tetrazolium dyes change colour on reduction, which living cells bring about.)
For series [12], the target named is T1, Protein cereblon/Eukaryotic peptide chain release factor GTP-binding subunit ERF3A (Homo sapiens). The experiment in a line: PROTAC activity at CRBN/GSPT1 in human MOLT-4 cells assessed as degradation of GSPT1 at upto 300 nM by Western blot analysis. It counts as cell-based.
Series [13] shares this target. The experiment in a line: PROTAC activity at CRBN/GSPT1 in human U-937 cells assessed as increase in ubiquitination of GSPT1 at 100 nM preincubated with MG-132 for 2 hrs followed by compound treatment and measured after 24 hrs by coimmunoprecipitation analysis. In kind it is cell-based.
Series [14] has as its target Protein cereblon/Zinc finger protein Aiolos (Homo sapiens) (UniProt Q96SW2+Q9UKT9). The experiment in a line: PROTAC activity at CRBN/IKZF3 in human U-937 cells at upto 300 nM. In kind it is cell-based.
Series [15] is described as follows: Downregulation of SYIC level in human U-937 cells assessed as fold change at 0.1 uM measured after 6 hrs. In kind it is functional.
Series [16] in a line: Downregulation of AMPN level in human U-937 cells assessed as fold change at 0.1 uM measured after 6 hrs. It counts as functional.
The target of series [17] is T1, Protein cereblon/Eukaryotic peptide chain release factor GTP-binding subunit ERF3A (Homo sapiens). Nature of the series: PROTAC activity at CRBN/GSPT1 in human U-937 cells assessed as induction of GSPT1 degradation preincubated with MG132 for 2 hrs followed by compound addition and measured after 6 hrs by Western blot analysis. In kind it is cell-based. (A western blot detects proteins with antibodies after separation by electrophoresis.)

Series [18] shares this target. Nature of the series: PROTAC activity at CRBN/GSPT1 in human U-937 cells assessed as degradation of GSPT1 at 100 nM measured after 4 to 24 hrs by Western blot analysis. The following applies: time 4-24 hrs. In kind it is cell-based.
The test system of series [19] is U-937. The experiment in a line: Induction of apoptosis in human U-937 cells assessed as necrotic cells at 30 nM measured after 24 hr by Annexin V-FITC/7AAD staining based flow cytometry (reference value: 3.52%). It counts as functional.

Sequence of Protein cereblon/Zinc finger protein Aiolos (Homo sapiens) (Q96SW2 whole entry, looked up): as the sequence (Q96SW2 whole entry, looked up) above
Sequence of Protein cereblon/Zinc finger protein Aiolos (Homo sapiens) (Q9UKT9 whole entry, looked up): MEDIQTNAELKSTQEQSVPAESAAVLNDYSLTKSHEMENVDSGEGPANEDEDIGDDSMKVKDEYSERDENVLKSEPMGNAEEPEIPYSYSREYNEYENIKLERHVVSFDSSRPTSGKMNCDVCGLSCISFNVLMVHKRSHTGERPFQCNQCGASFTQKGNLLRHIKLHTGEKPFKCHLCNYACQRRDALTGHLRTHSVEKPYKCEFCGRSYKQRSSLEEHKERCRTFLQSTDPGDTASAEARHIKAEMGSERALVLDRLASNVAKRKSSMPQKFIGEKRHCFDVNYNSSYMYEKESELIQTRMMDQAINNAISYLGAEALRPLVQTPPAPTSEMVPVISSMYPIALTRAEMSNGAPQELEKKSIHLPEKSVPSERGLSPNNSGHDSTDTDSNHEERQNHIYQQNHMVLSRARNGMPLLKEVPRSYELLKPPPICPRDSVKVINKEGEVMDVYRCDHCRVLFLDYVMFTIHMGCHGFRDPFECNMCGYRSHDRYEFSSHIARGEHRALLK

As for `COCCN(C)Cc1cc(NC(=O)CCc2ccc3c(c2)C(=O)N(C2CCC(=O)NC2=O)C3)cc(Cl)c1C` (centres undefined), the Activity in series [1] was 27.48%; in series [3] it was 6.73%; in series [5], “Dose-Dependent Effect”; in series [19], 5.84%. For the same compound, the “log(activity)” value in series [2] is -3.32; in series [7], -3.32; in [15], -3.32; in series [16], -3.63. This compound showed a half-life in series [4] of 1.25 h. Besides, in series [6], the EC50 was 35 nM. For the same compound, the values for the IC50 in series [8] and in [11] were 6 nM and 27 nM, respectively. In series [9], this compound had an AUC(0-t) of 1050 ng·h/mL. Moreover, the result in [10], in series [14] and in [17] was inactive. Further, the result in series [12], in series [13] and in [18] was Active.
